According to patent US20210078988A1, “MODULATORS OF INDOLEAMINE 2,3-DIOXYGENASE” (GLAXOSMITHKLINE INTELLECTUAL PROPERTY DEVELOPMENT LIMITED, priority 2017, published 2021):

target: T1, indoleamine 2, 3-dioxygenase (IDO1) (Homo sapiens, UniProt P14902); assay: PBMC IDO1 assay (kynurenine detection via mass spectrometry); format: cell-based; details: human PBMC stimulated with IFN-γ and LPS, 2 days, kynurenine by mass spectrometry; read-out: IDO1 PBMC pIC50 (converted)
T1 construct: human peripheral blood mononuclear cells (PBMC) (PB003F; host or cells: human PBMC stimulated with IFN-gamma and LPS
Summary of the method: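 Kynurenine output, read by RapidFire mass spectrometry as a ratio to internal standard, reflected IDO1 activity in human PBMCs induced with 100 ng/ml IFN-γ plus 50 ng/ml LPS and dosed with compound (11 points, 3-fold) over 2 days. Cytotoxicity was tracked by CellTiter-Glo; XC50 values came from Hill-slope fits.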

T1 sequence (P14902 whole entry): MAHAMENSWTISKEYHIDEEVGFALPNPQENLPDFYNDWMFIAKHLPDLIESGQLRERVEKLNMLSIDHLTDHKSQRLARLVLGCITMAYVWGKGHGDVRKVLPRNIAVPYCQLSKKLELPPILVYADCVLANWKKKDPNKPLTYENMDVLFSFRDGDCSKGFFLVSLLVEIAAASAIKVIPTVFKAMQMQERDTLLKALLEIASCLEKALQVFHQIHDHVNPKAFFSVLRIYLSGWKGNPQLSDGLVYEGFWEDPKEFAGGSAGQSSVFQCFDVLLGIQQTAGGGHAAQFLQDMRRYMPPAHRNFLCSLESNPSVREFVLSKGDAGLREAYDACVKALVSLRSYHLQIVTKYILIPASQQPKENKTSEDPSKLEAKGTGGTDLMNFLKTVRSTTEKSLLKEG

IC50 | Compound
631 nM | CC(C)(C)OC(=O)N1CCC(CC(NC(=O)c2ccco2)c2ccccc2)CC1 (centres unmarked) [Example 228, tert-butyl 4-(2-(furan-2-carboxamido)-2-phenylethyl)piperidine-1-carboxylate]
631 nM | CC(C)(C)OC(=O)N1CCC(C[C@H](Nc2ccnc(Cl)n2)C2CC2)CC1 [Example 229, (S)-tert-butyl 4-(2-((2-chloropyrimidin-4-yl)amino)-2-cyclopropylethyl)piperidine-1-carboxylate]
631 nM | O=C(NC(CC1CCN(C(=O)N2CCCCC2)CC1)c1ccccc1)c1ccc(Cl)cc1 (centres unmarked) [Example 230, 4-chloro-N-(1-phenyl-2-(1-(piperidine-1-carbonyl)piperidin-4-yl)ethyl)benzamide]
631 nM | CCNCC[C@H](CC1CCN(C(=O)OC(C)(C)C)CC1)NC(=O)c1ccc(Cl)s1 [Example 231, (S)-tert-butyl 4-(2-(5-chlorothiophene-2-carboxamido)-4-(ethylamino)butyl)piperidine-1-carboxylate]
794 nM | CC(C)(C)OC(=O)N1CCC(CC(NC(=O)C2CCCC2)c2ccccc2)CC1 (centres unmarked) [Example 232, tert-butyl 4-(2-(cyclopentanecarboxamido)-2-phenylethyl)piperidine-1-carboxylate]
794 nM | CC1CCC(C(=O)NC(CC2CCN(C(=O)OC(C)(C)C)CC2)c2ccccc2)CC1 (centres unmarked) [Example 233, tert-butyl 4-(2-(4-methylcyclohexanecarboxamido)-2-phenylethyl)piperidine-1-carboxylate]
794 nM | CC(C)(C)OC(=O)N1CCC(C[C@@H](NC(=O)c2ccc(Cl)cc2)c2ccccc2)CC1 [Example 234, (R)-tert-butyl 4-(2-(4-chlorobenzamido)-2-phenylethyl)piperidine-1-carboxylate]
794 nM | COCCNCC(CC1CCN(C(=O)OC(C)(C)C)CC1)NC(=O)c1ccc(F)cc1 (centres unmarked) [Example 235, tert-butyl 4-(2-(4-fluorobenzamido)-3-((2-methoxyethyl)amino)propyl)piperidine-1-carboxylate]
